What was measured:
[1] = test system: OVX rats; experiment: OVX rat model on osteoporosis: serum calcium; assay type: in vivo; set-up: key to Effect on serum calcium vs 1,25D3: <: less effect than the reference dose of 1,25D3 (0.25 ug/kg); <=: less or the same effect as the reference dose of 1,25D3 (0.25 ug/kg); =: same effect as the reference dose of 1,25D3 (0.25 ug/kg); =>: same or better effect as the reference dose of 1,25D3 (0.25 ug/kg); >: better effect than the reference dose of 1,25D3 (0.25 ug/kg); details: for Effect on serum calcium vs 1,25D3 / Effect on serum calcium vs Ovx contr: oral 28 days
Excerpt: (§1) Pharmacological Methods—OVX Rat Model on Osteoporosis
(§2) To study bone anabolic properties and the effects of the vitamin D analogues of the present invention in preventing or treating demineralisation of the skeleton in vivo, a 4 weeks OVX rat model was used:
(§3) An ovariectomized rat model (OVX model), orally dosed for 28 days is useful for screening of vitamin D analogues. In this model ovariectomy produces alterations in the cancellous network identical to those seen in the human skeleton during ageing and the menopause. Besides this the model and the following analyses can be performed under very standardised conditions. 1α,25(OH)2D3 is used as a reference compound.
(§4) Female Sprague Dawley rats weighing approximately 130 g (40–45 days old) were purchased from MB, Ejby, Denmark. The animals were fed a commercial diet and allowed free access to food and drinking water. The animals were split into groups receiving differential treatment.
(§5) The animals were anaesthetised and ovariectomized through a dorsal incision.
(§6) Treatment of OVX animals was started 2 weeks after ovariectomy.
(§7) The animals were dosed orally for 28 days. The oral dosage was by gavage 0.1 ml/100 g bodyweight. The bodyweight of each animal was recorded every day prior to oral dosing. On day 7, 14, 21 and 28 the animals were housed separately for 24 hours in metabolic cages for collection of urine. Urine was frozen at −20° C. for later calcium measurement.
At day 28 the animals were anaesthetised and 2 ml of blood was obtained either by heart puncture or from the orbital vein, after this the animals were euthanized by CO2. The serum fraction was then removed and frozen at −20° C. for later measurement of calcium, phosphorous and creatinine.
(§8) Effect of Compound 145 compared to the reference dose of 1,25(OH)2D3 (1,25D3) (0.25 μg/kg) and compared to the OVX control group (shown in %) are shown in Tables 1 to 4.

[2] = test system: OVX rats; experiment: OVX rat model on osteoporosis: biomechanical test of bone strength; assay type: in vivo; set-up: key to Effect on bone strength, Femor. Meta., vs 1,25D3 / Effect on bone strength, L3, vs 1,25D3 / Effect on bone strength, Femor. Dia., vs 1,25D3: <: less effect than the reference dose of 1,25D3 (0.25 ug/kg); <=: less or the same effect as the reference dose of 1,25D3 (0.25 ug/kg); =: same effect as the reference dose of 1,25D3 (0.25 ug/kg); =>: same or better effect as the reference dose of 1,25D3 (0.25 ug/kg); >: better effect than the reference dose of 1,25D3 (0.25 ug/kg); details: oral 28 days
Description: FIG. 2 is a graphic illustration of the biomechanical test of the lumbal vertebrae, L3. The vertebral body cylinder were tested along the proximal-distal axis in a materials testing machine (Alwetron TCT 5, Lorentzen and Wettre, Stockholm, Sweden) at a constant deformation rate of 2 mm/min. During compression, load-deformation curves were recorded and stored on a PC (ProLinea 4/33, Compaq, USA). Fmax is the maximum point on the load deforming curve.
The rats were treated according to the OVX rat model described herein, and wherein the animal groups received treatment according to the same scheme as for FIG. 1. A statistical analysis is shown in the graphic illustration, cf. description for FIG. 1.
as §1, §2, §3, §4, §5, §6, §7
Left and right femur, left and right tibia, lumbal vertebrae 3 and 4 (L3 and L4) were removed and cleaned for all soft- and connecting tissue. Left femur, left and right tibia and L4 were dried in an oven at 50–60° C. for at least 24 hours and immediately hereafter weighed. The bones were burned in an oven at 800° C. for 4 hours, dissolved in 1N HCl, and analysed for calcium content in a Hitachi 911 autoanalyser. Right femur and L3 were kept in 0.9% NaCl and frozen at −20° C. for later biomechanical testing performed by Jesper Skovhus Thomsen and Lis Mosekilde at Aarhus University, measuring various biomechanical parameters.
as §8

Effect on serum calcium vs 1,25D3 ([1]; 1 μg/kg, MTR/16): No
Effect on serum calcium vs Ovx contr ([1]; 1 μg/kg, MTR/16): 0%
Effect on serum calcium vs 1,25D3 ([1]; 10 μg/kg, MTR/16): No
Effect on serum calcium vs Ovx contr ([1]; 10 μg/kg, MTR/16): 3%
Effect on serum calcium vs 1,25D3 ([1]; 10 μg/kg, MTR/23): <
Effect on serum calcium vs Ovx contr ([1]; 10 μg/kg, MTR/23): 6%
Effect on serum calcium vs 1,25D3 ([1]; 25 μg/kg, MTR/27): <
Effect on serum calcium vs Ovx contr ([1]; 25 μg/kg, MTR/27): 11%
Effect on serum calcium vs 1,25D3 ([1]; 50 μg/kg, MTR/23): No
Effect on serum calcium vs Ovx contr ([1]; 50 μg/kg, MTR/23): 2%
Effect on serum calcium vs 1,25D3 ([1]; 50 μg/kg, MTR/27): =
Effect on serum calcium vs Ovx contr ([1]; 50 μg/kg, MTR/27): 18%
Effect on serum calcium vs 1,25D3 ([1]; 75 μg/kg, MTR/27): =
Effect on serum calcium vs Ovx contr ([1]; 75 μg/kg, MTR/27): 20%
Effect on serum calcium vs 1,25D3 ([1]; 100 μg/kg, MTR/23): No
Effect on serum calcium vs Ovx contr ([1]; 100 μg/kg, MTR/23): −5%
Structure (SMILES): C=C1C(=CC=C2CCCC3(C)C2CCC3C(C)CSc2ccc(C(C)(C)O)cc2)CC(O)CC1O [Compound 145, 1(S),3(R)-Dihydroxy-20(R)-(4-((1-hydroxy-1-methyl)ethyl)phenylthiomethyl)-9,10-seco-pregna-5(Z),7(E),10(19)-triene]
calcaemic effect (adverse effect) compared to 1,25D3 ([1]; summary of Tables 1 to 4): reduced
Effect on bone strength, Femor. Dia., vs 1,25D3 ([2]; 1 μg/kg, MTR/16): <=
Effect on bone strength, Femor. Meta., vs 1,25D3 ([2]; 1 μg/kg, MTR/16): <
Effect on bone strength, L3, vs 1,25D3 ([2]; 1 μg/kg, MTR/16): <
Effect on bone strength, Femor. Dia., vs 1,25D3 ([2]; 10 μg/kg, MTR/16): =
Effect on bone strength, Femor. Meta., vs 1,25D3 ([2]; 10 μg/kg, MTR/16): =
Effect on bone strength, L3, vs 1,25D3 ([2]; 10 μg/kg, MTR/16): >
Effect on bone strength, Femor. Dia., vs 1,25D3 ([2]; 10 μg/kg, MTR/23): <=
Effect on bone strength, Femor. Dia., vs Ovx contr ([2]; 10 μg/kg, MTR/23): −5%
Effect on bone strength, Femor. Meta., vs 1,25D3 ([2]; 10 μg/kg, MTR/23): <
Effect on bone strength, Femor. Meta., vs Ovx contr ([2]; 10 μg/kg, MTR/23): 6%
Effect on bone strength, L3, vs 1,25D3 ([2]; 10 μg/kg, MTR/23): =
Effect on bone strength, L3, vs Ovx contr ([2]; 10 μg/kg, MTR/23): 23%
Effect on bone strength, Femor. Dia., vs 1,25D3 ([2]; 25 μg/kg, MTR/27): >
Effect on bone strength, Femor. Dia., vs Ovx contr ([2]; 25 μg/kg, MTR/27): 9%
Effect on bone strength, Femor. Meta., vs 1,25D3 ([2]; 25 μg/kg, MTR/27): >
Effect on bone strength, Femor. Meta., vs Ovx contr ([2]; 25 μg/kg, MTR/27): 39%
Effect on bone strength, L3, vs 1,25D3 ([2]; 25 μg/kg, MTR/27): <=
Effect on bone strength, L3, vs Ovx contr ([2]; 25 μg/kg, MTR/27): 27%
Effect on bone strength, Femor. Dia., vs 1,25D3 ([2]; 50 μg/kg, MTR/23): =
Effect on bone strength, Femor. Dia., vs Ovx contr ([2]; 50 μg/kg, MTR/23): −1%
Effect on bone strength, Femor. Meta., vs 1,25D3 ([2]; 50 μg/kg, MTR/23): >
Effect on bone strength, Femor. Meta., vs Ovx contr ([2]; 50 μg/kg, MTR/23): 43%
Effect on bone strength, L3, vs 1,25D3 ([2]; 50 μg/kg, MTR/23): >
Effect on bone strength, L3, vs Ovx contr ([2]; 50 μg/kg, MTR/23): 45%
Effect on bone strength, Femor. Dia., vs 1,25D3 ([2]; 50 μg/kg, MTR/27): >
Effect on bone strength, Femor. Dia., vs Ovx contr ([2]; 50 μg/kg, MTR/27): 5%
Effect on bone strength, Femor. Meta., vs 1,25D3 ([2]; 50 μg/kg, MTR/27): >
Effect on bone strength, Femor. Meta., vs Ovx contr ([2]; 50 μg/kg, MTR/27): 31%
Effect on bone strength, L3, vs 1,25D3 ([2]; 50 μg/kg, MTR/27): <
Effect on bone strength, L3, vs Ovx contr ([2]; 50 μg/kg, MTR/27): 22%
Effect on bone strength, Femor. Dia., vs 1,25D3 ([2]; 75 μg/kg, MTR/27): >
Effect on bone strength, Femor. Dia., vs Ovx contr ([2]; 75 μg/kg, MTR/27): 4%
Effect on bone strength, Femor. Meta., vs 1,25D3 ([2]; 75 μg/kg, MTR/27): >>
Effect on bone strength, Femor. Meta., vs Ovx contr ([2]; 75 μg/kg, MTR/27): 50%
Effect on bone strength, L3, vs 1,25D3 ([2]; 75 μg/kg, MTR/27): =
Effect on bone strength, L3, vs Ovx contr ([2]; 75 μg/kg, MTR/27): 38%
Effect on bone strength, Femor. Dia., vs 1,25D3 ([2]; 100 μg/kg, MTR/23): =
Effect on bone strength, Femor. Dia., vs Ovx contr ([2]; 100 μg/kg, MTR/23): −3%
Effect on bone strength, Femor. Meta., vs 1,25D3 ([2]; 100 μg/kg, MTR/23): =
Effect on bone strength, Femor. Meta., vs Ovx contr ([2]; 100 μg/kg, MTR/23): 21%
Effect on bone strength, L3, vs 1,25D3 ([2]; 100 μg/kg, MTR/23): >
Effect on bone strength, L3, vs Ovx contr ([2]; 100 μg/kg, MTR/23): 37%

From patent publication US7071178B2, “Use of vitamin D-derivatives in the treatment of osteoporosis and related bone disorders, as well as novel vitamin D3-derivatives” (Leo Pharmaceutical Products, Ltd., priority 2000, dated 2006)
